Data as given in PubChem BioAssay (NCI).
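Values below derive from 48-hour exposures of cells grown in 96-well plates, with endpoints linearly interpolated between the two concentrations bracketing the appropriate inhibition level. At the TGI there is no net growth.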

Key:
Test in all cases: NCI-60 cell line screen, 48 h
MCF7 breast = test system: MCF7 breast
RPMI-8226 leukemia = test system: RPMI-8226 leukemia
OVCAR-4 ovarian = test system: OVCAR-4 ovarian
KM12 colon = test system: KM12 colon
NCI/ADR-RES ovarian = test system: NCI/ADR-RES ovarian
NCI-H460 lung = test system: NCI-H460 lung
RXF 393 renal = test system: RXF 393 renal
CAKI-1 renal = test system: CAKI-1 renal
SK-OV-3 ovarian = test system: SK-OV-3 ovarian
SK-MEL-5 melanoma = test system: SK-MEL-5 melanoma
MDA-MB-231 breast = test system: MDA-MB-231 breast
786-0 renal = test system: 786-0 renal
HCT-116 colon = test system: HCT-116 colon
DU-145 prostate = test system: DU-145 prostate
K-562 leukemia = test system: K-562 leukemia
SK-MEL-28 melanoma = test system: SK-MEL-28 melanoma
HOP-62 NSCLC = test system: HOP-62 NSCLC
IGROV1 ovarian = test system: IGROV1 ovarian
UACC-62 melanoma = test system: UACC-62 melanoma
EKVX NSCLC = test system: EKVX NSCLC
SNB-75 CNS = test system: SNB-75 CNS
A549 NSCLC = test system: A549 NSCLC
LOX IMVI melanoma = test system: LOX IMVI melanoma
HT29 colon = test system: HT29 colon
TK-10 renal = test system: TK-10 renal
NCI-H522 lung = test system: NCI-H522 lung
ACHN renal = test system: ACHN renal
U251 CNS = test system: U251 CNS
MALME-3M melanoma = test system: MALME-3M melanoma
CCRF-CEM leukemia = test system: CCRF-CEM leukemia
HS 578T breast = test system: HS 578T breast
UO-31 renal = test system: UO-31 renal
OVCAR-5 ovarian = test system: OVCAR-5 ovarian
NCI-H226 lung = test system: NCI-H226 lung
COLO 205 colon = test system: COLO 205 colon
SNB-19 CNS = test system: SNB-19 CNS
HCT-15 colon = test system: HCT-15 colon
OVCAR-3 ovarian = test system: OVCAR-3 ovarian
T-47D breast = test system: T-47D breast
M14 melanoma = test system: M14 melanoma
MDA-N = test system: MDA-N
PC-3 prostate = test system: PC-3 prostate
HOP-92 NSCLC = test system: HOP-92 NSCLC
SF-268 CNS = test system: SF-268 CNS
SR leukemia = test system: SR leukemia
SW-620 colon = test system: SW-620 colon
A498 renal = test system: A498 renal
MDA-MB-435 = test system: MDA-MB-435
HL-60(TB) leukemia = test system: HL-60(TB) leukemia
SK-MEL-2 melanoma = test system: SK-MEL-2 melanoma
OVCAR-8 ovarian = test system: OVCAR-8 ovarian
BT-549 breast = test system: BT-549 breast
SN12C renal = test system: SN12C renal
NCI-H23 lung = test system: NCI-H23 lung
SF-295 CNS = test system: SF-295 CNS
UACC-257 melanoma = test system: UACC-257 melanoma
MOLT-4 leukemia = test system: MOLT-4 leukemia
SF-539 CNS = test system: SF-539 CNS

O=C(O)C1(Nc2ccc(Cl)cc2)CCCC1
TGI (MCF7 breast): > 100 µM
TGI (RPMI-8226 leukemia): > 100 µM
TGI (OVCAR-4 ovarian): > 100 µM
TGI (KM12 colon): > 100 µM
TGI (NCI/ADR-RES ovarian): > 100 µM
TGI (NCI-H460 lung): > 100 µM
TGI (RXF 393 renal): > 100 µM
TGI (CAKI-1 renal): > 100 µM
TGI (SK-OV-3 ovarian): > 100 µM
TGI (SK-MEL-5 melanoma): > 100 µM
TGI (MDA-MB-231 breast): > 100 µM
TGI (786-0 renal): > 100 µM
TGI (HCT-116 colon): > 100 µM
TGI (DU-145 prostate): > 100 µM
TGI (K-562 leukemia): > 100 µM
TGI (SK-MEL-28 melanoma): > 100 µM
TGI (HOP-62 NSCLC): > 100 µM
TGI (IGROV1 ovarian): > 100 µM
TGI (UACC-62 melanoma): > 100 µM
TGI (EKVX NSCLC): > 100 µM
TGI (SNB-75 CNS): > 100 µM
TGI (A549 NSCLC): > 100 µM
TGI (LOX IMVI melanoma): > 100 µM
TGI (HT29 colon): > 100 µM
TGI (TK-10 renal): > 100 µM
TGI (NCI-H522 lung): > 100 µM
TGI (ACHN renal): > 100 µM
TGI (U251 CNS): > 100 µM
TGI (MALME-3M melanoma): > 100 µM
TGI (CCRF-CEM leukemia): > 100 µM
TGI (HS 578T breast): > 100 µM
TGI (UO-31 renal): > 100 µM
TGI (OVCAR-5 ovarian): > 100 µM
TGI (NCI-H226 lung): > 100 µM
TGI (COLO 205 colon): > 100 µM
TGI (SNB-19 CNS): > 100 µM
TGI (HCT-15 colon): > 100 µM
TGI (OVCAR-3 ovarian): > 100 µM
TGI (T-47D breast): > 100 µM
TGI (M14 melanoma): > 100 µM
TGI (MDA-N): > 100 µM
TGI (PC-3 prostate): > 100 µM
TGI (HOP-92 NSCLC): > 100 µM
TGI (SF-268 CNS): > 100 µM
TGI (SR leukemia): > 100 µM
TGI (SW-620 colon): > 100 µM
TGI (A498 renal): > 100 µM
TGI (MDA-MB-435): > 100 µM
TGI (HL-60(TB) leukemia): > 100 µM
TGI (SK-MEL-2 melanoma): > 100 µM
TGI (OVCAR-8 ovarian): > 100 µM
TGI (BT-549 breast): > 100 µM
TGI (SN12C renal): > 100 µM
TGI (NCI-H23 lung): > 100 µM
TGI (SF-295 CNS): > 100 µM

c1ccc(COC2NCCN2Cc2ccccc2)cc1 (stereo not drawn)
TGI (MCF7 breast): > 100 µM
TGI (RPMI-8226 leukemia): > 100 µM
TGI (OVCAR-4 ovarian): > 100 µM
TGI (KM12 colon): > 100 µM
TGI (NCI/ADR-RES ovarian): > 100 µM
TGI (NCI-H460 lung): > 100 µM
TGI (RXF 393 renal): > 100 µM
TGI (CAKI-1 renal): > 100 µM
TGI (SK-OV-3 ovarian): > 100 µM
TGI (SK-MEL-5 melanoma): > 100 µM
TGI (MDA-MB-231 breast): > 100 µM
TGI (786-0 renal): > 100 µM
TGI (UACC-257 melanoma): > 100 µM
TGI (HCT-116 colon): > 100 µM
TGI (DU-145 prostate): > 100 µM
TGI (K-562 leukemia): > 100 µM
TGI (SK-MEL-28 melanoma): > 100 µM
TGI (HOP-62 NSCLC): > 100 µM
TGI (IGROV1 ovarian): > 100 µM
TGI (UACC-62 melanoma): > 100 µM
TGI (EKVX NSCLC): > 100 µM
TGI (SNB-75 CNS): > 100 µM
TGI (A549 NSCLC): > 100 µM
TGI (LOX IMVI melanoma): > 100 µM
TGI (HT29 colon): > 100 µM
TGI (TK-10 renal): > 100 µM
TGI (NCI-H522 lung): > 100 µM
TGI (ACHN renal): > 100 µM
TGI (U251 CNS): > 100 µM
TGI (MALME-3M melanoma): > 100 µM
TGI (CCRF-CEM leukemia): > 100 µM
TGI (HS 578T breast): > 100 µM
TGI (UO-31 renal): > 100 µM
TGI (OVCAR-5 ovarian): > 100 µM
TGI (MOLT-4 leukemia): > 100 µM
TGI (NCI-H226 lung): > 100 µM
TGI (COLO 205 colon): > 100 µM
TGI (SNB-19 CNS): > 100 µM
TGI (HCT-15 colon): > 100 µM
TGI (OVCAR-3 ovarian): > 100 µM
TGI (T-47D breast): > 100 µM
TGI (SF-539 CNS): > 100 µM
TGI (M14 melanoma): > 100 µM
TGI (MDA-N): > 100 µM
TGI (PC-3 prostate): > 100 µM
TGI (HOP-92 NSCLC): > 100 µM
TGI (SF-268 CNS): > 100 µM
TGI (SR leukemia): > 100 µM
TGI (SW-620 colon): > 100 µM
TGI (A498 renal): > 100 µM
TGI (MDA-MB-435): > 100 µM
TGI (HL-60(TB) leukemia): > 100 µM
TGI (SK-MEL-2 melanoma): > 100 µM
TGI (OVCAR-8 ovarian): > 100 µM
TGI (BT-549 breast): > 100 µM
TGI (SN12C renal): > 100 µM
TGI (NCI-H23 lung): > 100 µM
TGI (SF-295 CNS): > 100 µM

CCOC(=O)CNC(=O)C(CSCC1C(=O)Nc2ccccc21)NC(=O)CCC(N)C(=O)OCC (stereo not drawn)
TGI (MCF7 breast): 3.46 µM
TGI (RPMI-8226 leukemia): 3.09 µM
TGI (OVCAR-4 ovarian): 9.11 µM
TGI (KM12 colon): 8.33 µM
TGI (NCI/ADR-RES ovarian): 3.02 µM
TGI (NCI-H460 lung): 20.9 µM
TGI (RXF 393 renal): 2.72 µM
TGI (CAKI-1 renal): 2.4 µM
TGI (SK-MEL-5 melanoma): 3.26 µM
TGI (MDA-MB-231 breast): 3.48 µM
TGI (786-0 renal): 4.28 µM
TGI (UACC-257 melanoma): 14.3 µM
TGI (HCT-116 colon): 2.97 µM
TGI (DU-145 prostate): 34.4 µM
TGI (K-562 leukemia): 0.948 µM
TGI (SK-MEL-28 melanoma): 3.59 µM
TGI (HOP-62 NSCLC): 4.99 µM
TGI (IGROV1 ovarian): 2.83 µM
TGI (UACC-62 melanoma): 2.92 µM
TGI (EKVX NSCLC): 4.47 µM
TGI (A549 NSCLC): 6.63 µM
TGI (LOX IMVI melanoma): 1.64 µM
TGI (HT29 colon): 3.02 µM
TGI (TK-10 renal): 5.14 µM
TGI (NCI-H522 lung): 3.59 µM
TGI (ACHN renal): 3.74 µM
TGI (U251 CNS): 2.73 µM
TGI (MALME-3M melanoma): 4.89 µM
TGI (CCRF-CEM leukemia): 0.79 µM
TGI (HS 578T breast): 17.6 µM
TGI (UO-31 renal): 2.74 µM
TGI (OVCAR-5 ovarian): 3.65 µM
TGI (NCI-H226 lung): 5.44 µM
TGI (COLO 205 colon): 2.54 µM
TGI (SNB-19 CNS): 20 µM
TGI (HCT-15 colon): 2.53 µM
TGI (OVCAR-3 ovarian): 5.65 µM
TGI (T-47D breast): > 100 µM
TGI (SF-539 CNS): 0.608 µM
TGI (M14 melanoma): 4.01 µM
TGI (MDA-N): 5.01 µM
TGI (PC-3 prostate): 4.9 µM
TGI (HOP-92 NSCLC): 5.03 µM
TGI (SF-268 CNS): 6.44 µM
TGI (SR leukemia): 0.546 µM
TGI (SW-620 colon): 2.73 µM
TGI (A498 renal): 8.19 µM
TGI (MDA-MB-435): 3.19 µM
TGI (HL-60(TB) leukemia): 4.7 µM
TGI (SK-MEL-2 melanoma): 4.51 µM
TGI (OVCAR-8 ovarian): 11.4 µM
TGI (BT-549 breast): 7.14 µM
TGI (SN12C renal): 3.64 µM
TGI (NCI-H23 lung): 5.62 µM
TGI (SF-295 CNS): 6.31 µM
